Experimental data: patent publication US11179372B2, “Isoxazoline solution containing vitamin E for use with sanitized drinking water” (Intervet Inc., priority 2015, dated 2021)

Columns and labels:
[1] = test system: poultry red mite (D. gallinae); assay: Efficacy of Fluralaner in medicated drinking water against poultry red mite infestation of laying hens; format: in vivo, Dermanyssus gallinae; conditions: for % Inhibition of mites 24 hours after infestation on day 1 / % Inhibition of mites 24 hours after infestation on day 5 / % Inhibition of mites 24 hours after infestation on day 8 / % Inhibition of mites 24 hours after infestation on day 12 / % Inhibition of mites 24 hours after infestation on day 15 / % Inhibition of mites 24 hours after infestation on day 19 / % Inhibition of mites 24 hours after infestation on day 22 / % Mortality of mites 24 hours after infestation on day 1 / % Mortality of mites 24 hours after infestation on day 5 / % Mortality of mites 24 hours after infestation on day 8 / % Mortality of mites 24 hours after infestation on day 12 / % Mortality of mites 24 hours after infestation on day 15 / % Mortality of mites 24 hours after infestation on day 19 / % Mortality of mites 24 hours after infestation on day 22: laying hens
Excerpt: The drinking water used was regular tap water not comprising a significant amount of oxidising sanitizer, and no vitamin E was used in the concentrated Fluralaner solution used. Experimental animals were chickens, particularly laying hens of about 30 weeks old. These were housed in a standard poultry house. Apparently healthy birds were assigned in a random way to treatment groups kept separately, and labelled individually. The birds were kept under natural light, and were given several days for acclimatization; drinking water consumption in each group was measured on three days prior to administration to calculate the average daily water consumption. Medicated water was prepared by diluting a concentrated Fluralaner solution (10 mg/ml) to the desired concentration of Fluralaner in regular tap water (hypochlorite <0.5 ppm). […] Groups A-D (n=6) were treated with doses of 2, 1 or 0.5 mg Fluralaner/kg BW once, or with 1 mg Fluralaner/kg BW in a repeated dose of 0.5 mg/kg BW on 2 occasions, 7 days apart. On day 0 (and group D additionally on day 7), the hens in groups A-D received Fluralaner via medicated drinking water. Group E received un-medicated drinking water ad libitum. The dose to be administered was calculated based on average body weights of each treatment group, measured one day before treatment (day −1, day 6). A concentrated Fluralaner solution was diluted in the drinking water to prepare medicated drinking water ready for consumption, via the following dosing regimen: • The volume of medicated water offered per group on day 0 (group D also on day 7) was approximately 50% of the calculated mean daily water intake measured previously in the respective group in order to ensure consumption of the full dose. • Once all medicated water was consumed the other 50% volume of the mean daily water intake was supplied as unmedicated tap water in the same drinker. On days 1, 5, 8, 12, 15, 19 and 22, four of the six hens per group were infested with approximately 200 vital, D. gallinae mites (unfed nymphs and adults that had starved before infestation for 7 days). From each infested hen approximately 25 engorged mites were collected after a few hours of presence in the animal box, next they were incubated for approximately 24 hours, after which their status was observed. The dead, damaged and/or live mites were counted visually using a binocular. Mites were classified as dead if no movement was determined or mites lay in a dorsal position. Mites were classified as damaged if their movement was uncoordinated. The Mite Mortality and Mite Inhibition percentage was calculated for each treated group in comparison to a non-treated negative control group.

[2] = Residues and withdrawal time in treated birds; format: in vivo; conditions: treated layer birds, oral uptake
[3] = Variation of concentration of vitamin E, Fluralaner in 5 ppm hypochlorite; format: physicochemical; conditions: used at 1:10.000; for Reduction t = 0 to t = 7 in %: 5 ppm ClO-, 40° C./75% RH
Experimental: While in Example 4.3 alpha-tocopherol was used in the pharmaceutical composition at 8.2% w/w, it was now tested at 80% of that value, namely at 6.6% w/w. Pharmaceutical compositions according to the invention were prepared, containing either 8.2 or 6.6% w/w alpha-tocopherol. Also one base composition was prepared without protector. These were diluted 1:10.000 to prepare medicated drinking waters with 1 μg/ml Fluralaner. Next hypochlorite was added to 5 ppm, and 20 ml samples were filled-out in 50 ml glass vials, sealed with a rubber stopper, and stored for 7 days at 40° C./75% RH. The amount of Fluralaner of the three samples was measured at t=0 and at t=7 days using UHPLC. The concentration of the vitamin E in the final test sample was 1:10,000 of 6.6 or 8.2% w/w.

[4] = Group A, 2 mg/kg BW once, drinking water
[5] = Group B, 1 mg/kg BW once, drinking water
[6] = Group C, 0.5 mg/kg BW once, drinking water
[7] = Group D, 1 (2 × 0.5) mg/kg BW, days 0 and 7, drinking water
[8] = Vitamin E 0 % w/w in pharm. comp.
[9] = Vitamin E 6.6 % w/w in pharm. comp.
[10] = Vitamin E 8.2 % w/w in pharm. comp.

Cc1cc(C2=NOC(c3cc(Cl)cc(Cl)c3)(C(F)(F)F)C2)ccc1C(=O)NCC(=O)NCC(F)(F)F (stereo not shown) [Fluralaner]
% Inhibition of mites 24 hours after infestation on day 1 [1, 4]: 100% | % Inhibition of mites 24 hours after infestation on day 5 [1, 4]: 100% | % Inhibition of mites 24 hours after infestation on day 8 [1, 4]: 100% | % Inhibition of mites 24 hours after infestation on day 12 [1, 4]: 100% | % Inhibition of mites 24 hours after infestation on day 15 [1, 4]: 81% | % Inhibition of mites 24 hours after infestation on day 19 [1, 4]: 14% | % Inhibition of mites 24 hours after infestation on day 22 [1, 4]: 0% | % Mortality of mites 24 hours after infestation on day 1 [1, 4]: 100% | % Mortality of mites 24 hours after infestation on day 5 [1, 4]: 100% | % Mortality of mites 24 hours after infestation on day 8 [1, 4]: 100% | % Mortality of mites 24 hours after infestation on day 12 [1, 4]: 100% | % Mortality of mites 24 hours after infestation on day 15 [1, 4]: 77% | % Mortality of mites 24 hours after infestation on day 19 [1, 4]: 1% | % Mortality of mites 24 hours after infestation on day 22 [1, 4]: 0% | % Inhibition of mites 24 hours after infestation on day 1 [1, 5]: 100% | % Inhibition of mites 24 hours after infestation on day 5 [1, 5]: 100% | % Inhibition of mites 24 hours after infestation on day 8 [1, 5]: 100% | % Inhibition of mites 24 hours after infestation on day 12 [1, 5]: 95% | % Inhibition of mites 24 hours after infestation on day 15 [1, 5]: 81% | % Inhibition of mites 24 hours after infestation on day 19 [1, 5]: 3% | % Inhibition of mites 24 hours after infestation on day 22 [1, 5]: 0% | % Mortality of mites 24 hours after infestation on day 1 [1, 5]: 100% | % Mortality of mites 24 hours after infestation on day 5 [1, 5]: 100% | % Mortality of mites 24 hours after infestation on day 8 [1, 5]: 100% | % Mortality of mites 24 hours after infestation on day 12 [1, 5]: 94% | % Mortality of mites 24 hours after infestation on day 15 [1, 5]: 77% | % Mortality of mites 24 hours after infestation on day 19 [1, 5]: 2% | % Mortality of mites 24 hours after infestation on day 22 [1, 5]: 0% | % Inhibition of mites 24 hours after infestation on day 1 [1, 6]: 100% | % Inhibition of mites 24 hours after infestation on day 5 [1, 6]: 100% | % Inhibition of mites 24 hours after infestation on day 8 [1, 6]: 100% | % Inhibition of mites 24 hours after infestation on day 12 [1, 6]: 75% | % Inhibition of mites 24 hours after infestation on day 15 [1, 6]: 19% | % Inhibition of mites 24 hours after infestation on day 19 [1, 6]: 0% | % Inhibition of mites 24 hours after infestation on day 22 [1, 6]: 0% | % Mortality of mites 24 hours after infestation on day 1 [1, 6]: 100% | % Mortality of mites 24 hours after infestation on day 5 [1, 6]: 100% | % Mortality of mites 24 hours after infestation on day 8 [1, 6]: 97% | % Mortality of mites 24 hours after infestation on day 12 [1, 6]: 55% | % Mortality of mites 24 hours after infestation on day 15 [1, 6]: 15% | % Mortality of mites 24 hours after infestation on day 19 [1, 6]: 0% | % Mortality of mites 24 hours after infestation on day 22 [1, 6]: 0% | % Inhibition of mites 24 hours after infestation on day 1 [1, 7]: 100% | % Inhibition of mites 24 hours after infestation on day 5 [1, 7]: 100% | % Inhibition of mites 24 hours after infestation on day 8 [1, 7]: 100% | % Inhibition of mites 24 hours after infestation on day 12 [1, 7]: 100% | % Inhibition of mites 24 hours after infestation on day 15 [1, 7]: 99% | % Inhibition of mites 24 hours after infestation on day 19 [1, 7]: 66% | % Inhibition of mites 24 hours after infestation on day 22 [1, 7]: 27% | % Mortality of mites 24 hours after infestation on day 1 [1, 7]: 100% | % Mortality of mites 24 hours after infestation on day 5 [1, 7]: 100% | % Mortality of mites 24 hours after infestation on day 8 [1, 7]: 100% | % Mortality of mites 24 hours after infestation on day 12 [1, 7]: 100% | % Mortality of mites 24 hours after infestation on day 15 [1, 7]: 98% | % Mortality of mites 24 hours after infestation on day 19 [1, 7]: 59% | % Mortality of mites 24 hours after infestation on day 22 [1, 7]: 14% | Onset of action against red mites ([1]; all administered doses): fast onset of action | Residue levels in eggs [2]: far below the MRL value | Fluralaner conc. after incubation in 5 ppm ClO- at 40° C./75% RH, for t = 0 d [3, 8]: 0.80 µg/mL | Fluralaner conc. after incubation in 5 ppm ClO- at 40° C./75% RH, for t = 7 d [3, 8]: 0.15 µg/mL | Reduction t = 0 to t = 7 in % [3, 8]: 81% | Fluralaner conc. after incubation in 5 ppm ClO- at 40° C./75% RH, for t = 0 d [3, 9]: 0.91 µg/mL | Fluralaner conc. after incubation in 5 ppm ClO- at 40° C./75% RH, for t = 7 d [3, 9]: 0.49 µg/mL | Reduction t = 0 to t = 7 in % [3, 9]: 46% | Fluralaner conc. after incubation in 5 ppm ClO- at 40° C./75% RH, for t = 0 d [3, 10]: 0.90 µg/mL | Fluralaner conc. after incubation in 5 ppm ClO- at 40° C./75% RH, for t = 7 d [3, 10]: 0.49 µg/mL | Reduction t = 0 to t = 7 in % [3, 10]: 46%
